Laboratory results reported in publication PMC11726677, “Eradication of Therapy-Resistant Cancer Stem Cells by Novel Telmisartan Derivatives” (Journal of Medicinal Chemistry, 2024).

Experiments:
K562-R cells [1] = assay: Chemosensitizing: metabolic activity of K562-R cells cotreated with imatinib (modified MTT assay); type: cell-based, human; details: 72 h
Procedure: (§1) The potential reduction in cell viability was determined using the modified MTT assay.
conc. 10 to 0.5 μM) over 72 h (Figure 3D).
(§2) COS-7 (2 × 10^3 cells per well), IGROV-1 SP (2.5 × 10^3 cells per well), A2780 V SP (1.5 × 10^3 cells per well), PC3-DR (4 × 10^3 cells per well), and DU145-DR (3 × 10^3 cells per well) cells were seeded in 96-well plates in triplicates and after 24 h, the compounds were added at the respective concentrations. K562-R and K562 cells (2 × 10^4 cells per well), were treated with the compounds 2 h after seeding. […] A modified MTT colorimetric assay (EZ4U kit, Biomedica) was used to determine the metabolic activity of the tested cells, according to the manufacturer’s instructions. Absorbance was measured and the optical density of the respective FCS-containing medium and of the substrate was subtracted to exclude nonspecific staining. Metabolic activity in the absence of the compounds (CTR, DMSO) was set to 100% as reference.

ABCB1 [2] = assay: Jess Simple Western immunoassay of ABCB1 expression in K562-R cells; type: cell-based, human; details: 4 μM, 72 h
Procedure: (§3) Protein extracts were prepared as previously described.[44] Protein expression was determined using the capillary-based Jess Simple Western detection system (ProteinSimple, BioTechne) according to the manufacturer’s instructions at default settings. […] Horseradish peroxidase (HRP)-conjugated secondary antirabbit antibody, which was included in the Jess Detection Module kit, was used. Data analysis was conducted using Compass for Simple Western 4.0 software (ProteinSimple, BioTechne).

STAT5 [3] = assay: Jess Simple Western immunoassay of STAT5/pSTAT5 in K562-R cells; type: cell-based, human; details: 4 μM + imatinib 1 μM, 6 h
Procedure: In the next step, the effects of the compounds (4 μM) on STAT5 in K562-R cells were examined.
as §3

[4] = tested on: A2780 V SP cells (ABCB1+); assay: SP analysis (DCV, flow cytometry) in A2780 V SP cells; type: cell-based, human; details: 10 μM
Excerpt: (§4) In recent studies, we described the side population (SP) phenotype as a marker that defines a heterogeneous cellular compartment with stem cell-characteristics in various cancer cell lines derived from solid tumors, such as ovarian cancer, breast cancer, and lung cancer.[26],[27]

[5] = tested on: IGROV-1 SP cells (ABCB1+); assay: SP analysis (DCV, flow cytometry) in IGROV-1 SP cells; type: cell-based, human; details: 10 μM
Excerpt: as §4

PC3-DR cells (ABCB1+) = assay: SP analysis (DCV, flow cytometry) in PC3-DR cells; type: cell-based, human; details: 10 μM
Excerpt: as §4

DU145-DR cells (ABCB1+) = assay: SP analysis (DCV, flow cytometry) in DU145-DR cells; type: cell-based, human; details: 10 μM
Excerpt: as §4

MCF7 cells (ABCG2+) = assay: SP analysis (DCV, flow cytometry) in MCF7 cells; type: cell-based, human; details: MCF7, 10 μM
Excerpt: as §4

A549 cells (ABCC1+) = assay: SP analysis (DCV, flow cytometry) in A549 cells; type: cell-based, human; details: A549, 10 μM
Excerpt: as §4

STAT5 [6] = assay: Jess Simple Western immunoassay of STAT5/pSTAT5 in A2780 V SP cells; type: cell-based, human; details: 10 μM, 72 h
Procedure: (§5) The impact of STAT5 activation on the mode of action was investigated in selected solid tumor cell lines as well.
as §3

STAT5 [7] = assay: Jess Simple Western immunoassay of STAT5/pSTAT5 in IGROV-1 SP cells; type: cell-based, human; details: 10 μM, 72 h; for STAT5 protein expression: IGROV1 SP
Procedure: as §5, §3

STAT5 [8] = assay: Jess Simple Western immunoassay of STAT5/pSTAT5 in MCF7 cells; type: cell-based, human; details: MCF7, 10 μM, 72 h
Procedure: as §5, §3

STAT5 [9] = assay: Jess Simple Western immunoassay of STAT5/pSTAT5 in A549 cells; type: cell-based, human; details: A549, 10 μM, 72 h
Procedure: as §5, §3

A2780 V SP cells = assay: Chemosensitizing to paclitaxel: metabolic activity of A2780 V SP cells (MTT); type: cell-based, human; details: compound 10 μM + PTX 10 nM, 72 h
Procedure: (§6) The chemosensitizing efficacy was investigated in the ovarian and prostate cancer cell lines using the above-described metabolic activity assay. Paclitaxel (PTX) served as a reference (CTR) in A2780 V SP and IGROV-1 SP cells and docetaxel (DTX) in PC3-DR and D145-DR cells.
as §2

IGROV-1 SP cells = assay: Chemosensitizing to paclitaxel: metabolic activity of IGROV-1 SP cells (MTT); type: cell-based, human; details: compound 10 μM + PTX 10 nM, 72 h
Procedure: as §6, §2

[10] = target: T1, ABCB1 transporter in K562-R cells (Homo sapiens, UniProt P08183); assay: Side population (SP) analysis, DCV staining, flow cytometry; details: 10 μM
Procedure: (§7) SP analyses were performed as previously described[45] on a LSRFortessa flow cytometer (BD Biosciences, Vienna, Austria). Briefly, 1 × 10^6 cells/mL were stained with 10 μM Vybrant DyeCycleTM Violet (DCV; Molecular Probes, Eugene, OR) in the presence or absence of the investigated compounds for 90 min at 37 °C. […] Subsequently, the cells were washed and immediately analyzed using flow cytometry. The FlowJo 9.6 software was used for data analyses (Tree Star Software, Ashland, CA).

K562-R cells [11] = assay: Metabolic activity of K562-R cells, compounds alone (modified MTT assay); type: cell-based, human; details: 10 μM, 72 h, without imatinib; vehicle control = 100%
Procedure: as §1
First, the compounds (10 μM) were applied alone to evaluate their effects per se.
as §2

[12] = tested on: primary human CML patient samples; assay: Colony forming cell (CFC) assay, primary CML patient samples; type: cell-based; details: together with 1 μM of imatinib, once at the beginning of the 14 day assay; compound 10 μM
Excerpt: Frozen peripheral blood mononuclear cells (PBMC) from TKI naïve CML patients and healthy controls were used for the CFC assay as described previously.[46] Briefly, thawed cells were resuspended a semisolid medium (Enriched MethocCult H4435, Stem Cell Technologies) supplemented with the respective compounds and cultured in small culture dishes for 2 weeks. Colonies were counted using an inverted microscope.

PC3-DR cells = assay: Chemosensitizing to docetaxel: metabolic activity of PC3-DR cells (MTT); type: cell-based, human; details: compound 10 μM + DTX 12.5 nM, 72 h
Procedure: as §6, §2

DU145-DR cells = assay: Chemosensitizing to docetaxel: metabolic activity of DU145-DR cells (MTT); type: cell-based, human; details: compound 10 μM + DTX 12.5 nM, 72 h
Procedure: as §6, §2

[13] = target: T1, ABCB1 transporter in K562-R cells; details: 90 min, 10 μM
Procedure: as §7

[14] = parameters: method as in PMID 23054986; details: cited from earlier work
[15] = parameters: method as in PMID 32759366; details: rat hepatocytes ref 30; cited from earlier work
ABCB1 [16] = tested on: ABCB1; parameters: method as in Weiss et al. 38; details: ref Weiss et al. 38; cited from earlier work
[17] = not told; cited from earlier work

T1 sequence (P08183 whole entry): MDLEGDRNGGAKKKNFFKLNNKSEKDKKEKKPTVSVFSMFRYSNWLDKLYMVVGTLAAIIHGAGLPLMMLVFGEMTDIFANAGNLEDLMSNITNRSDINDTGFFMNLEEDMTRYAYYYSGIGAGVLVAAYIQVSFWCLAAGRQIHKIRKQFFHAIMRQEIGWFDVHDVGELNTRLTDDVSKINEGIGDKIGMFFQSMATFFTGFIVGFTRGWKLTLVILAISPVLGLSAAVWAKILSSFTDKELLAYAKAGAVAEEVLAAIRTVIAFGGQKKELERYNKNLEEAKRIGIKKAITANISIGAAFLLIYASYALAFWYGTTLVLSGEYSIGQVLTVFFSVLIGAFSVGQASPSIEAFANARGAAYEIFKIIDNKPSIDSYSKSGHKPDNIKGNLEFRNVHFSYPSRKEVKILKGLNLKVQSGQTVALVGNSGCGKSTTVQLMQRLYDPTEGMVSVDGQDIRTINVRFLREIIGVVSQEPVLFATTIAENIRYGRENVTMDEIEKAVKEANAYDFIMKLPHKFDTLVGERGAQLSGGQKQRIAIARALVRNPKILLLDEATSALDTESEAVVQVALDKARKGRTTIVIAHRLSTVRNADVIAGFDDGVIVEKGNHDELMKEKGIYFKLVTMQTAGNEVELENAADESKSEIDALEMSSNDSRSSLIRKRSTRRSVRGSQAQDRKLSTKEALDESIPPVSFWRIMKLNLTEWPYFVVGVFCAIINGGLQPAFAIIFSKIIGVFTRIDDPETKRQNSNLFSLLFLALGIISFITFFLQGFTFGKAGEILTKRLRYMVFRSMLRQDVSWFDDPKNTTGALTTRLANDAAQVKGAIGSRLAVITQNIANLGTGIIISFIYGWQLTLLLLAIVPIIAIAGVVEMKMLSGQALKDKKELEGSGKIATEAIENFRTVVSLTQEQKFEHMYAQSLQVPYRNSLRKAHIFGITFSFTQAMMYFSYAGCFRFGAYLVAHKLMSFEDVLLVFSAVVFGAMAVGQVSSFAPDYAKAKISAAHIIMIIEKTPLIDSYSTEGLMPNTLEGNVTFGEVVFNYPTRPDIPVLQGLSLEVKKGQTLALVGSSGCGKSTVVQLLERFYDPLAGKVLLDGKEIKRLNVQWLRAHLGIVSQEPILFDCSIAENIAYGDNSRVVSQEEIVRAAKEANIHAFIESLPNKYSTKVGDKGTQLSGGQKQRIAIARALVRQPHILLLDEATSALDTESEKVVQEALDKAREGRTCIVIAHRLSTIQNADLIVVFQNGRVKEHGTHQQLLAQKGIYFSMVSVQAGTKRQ

SMILES | metabolic activity of K562-R cells, combination with imatinib (K562-R cells [1]; compound 10 μM + imatinib 1 μM) | effect on SP phenotype [4] | effect on SP phenotype [5] | effect on SP phenotype (PC3-DR cells (ABCB1+)) | effect on SP phenotype (DU145-DR cells (ABCB1+)) | effect on SP phenotype (MCF7 cells (ABCG2+)) | effect on SP phenotype (A549 cells (ABCC1+)) | STAT5 protein expression (STAT5 [7]) | chemosensitizing to PTX therapy (A2780 V SP cells) | viability / antimetabolic effect in combination with PTX (IGROV-1 SP cells) | further results
CCCc1nc2ccccc2n1Cc1ccc(-c2ccc(C(N)=O)cc2)cc1 [6c, 4′-((2-Propyl-1H-benzo[d]imidazole-1-yl)methyl)-[1,1′-biphenyl]-4-carboxamide] | 8–24% | effectively targeted the SP phenotype | effectively targeted the SP phenotype | effectively targeted the SP phenotype | effectively targeted the SP phenotype | nearly inactive | nearly inactive | significantly suppressed STAT5 | particularly sensitized | increased the antimetabolic effect of PTX | EC50 (K562-R cells [1]; K562-R, + imatinib 1 μM, read-out: SC50 (drug concentration eliciting 50% of the maximum sensitizing effect)): 1490 nM; ABCB1 protein expression (ABCB1 [2]): none of the compounds abrogated the ABCB1 protein expression; phosphorylation of STAT5 (STAT5 [3]): marked repression of the STAT5 phosphorylation; phosphorylation status of STAT5 (STAT5 [6]): efficiently repressed the phosphorylation status of STAT5; phosphorylation status of STAT5 (STAT5 [7]; IGROV-1 SP): efficiently repressed the phosphorylation status of STAT5; phosphorylation status of STAT5 (STAT5 [8]): efficiently repressed the phosphorylation status of STAT5; phosphorylation status of STAT5 (STAT5 [9]): efficiently repressed the phosphorylation status of STAT5; effect on SP phenotype / ABCB1 activity [10]: efficiently reduced the ABCB1 activity; relation of SP and NSP [10]: about 50%
CCCc1nc2c(C)cc(-c3nc4ccccc4n3C)cc2n1Cc1ccc(-c2ccccc2C(=O)O)cc1 [7a, telmisartan] | 34–58% | only modestly affected | only modestly affected | only modestly affected | only modestly affected | significantly inhibited the SP phenotype | significantly inhibited the SP phenotype | significantly suppressed STAT5 | least active chemosensitizer | increased the antimetabolic effect of PTX | metabolic activity of K562-R cells, compound alone (K562-R cells [11]): inactive; metabolic activity of K562-R cells, combination with imatinib (K562-R cells [1]; compound 8 μM + imatinib 1 μM): 55%; number of colonies (CFC) [12]: virtually ineffective; chemosensitizing to DTX (antimetabolic activity) (PC3-DR cells): only marginally increased the antimetabolic activity of DTX; chemosensitizing to DTX (antimetabolic activity) (DU145-DR cells): did not significantly reduce the metabolic activity; percentage of cells within SP gate [13]: 76.0%; reported aqueous solubility [14]: 9.9 µg/mL; CLint [15]: about 23 μL/min/10^6 cells; inhibition of ABCB1 (ABCB1 [16]): impeded ABCB1; apparent permeability coefficient (Papp) [17]: 29 10^–6 cms^–1
